Measurements taken from PMC9958325 (Nature Communications, 2023).
Values joined by “and” are separate entries in the source; they are usually repeats but may differ in a detail not shown here. Identical values can stand only once. Like-named read-outs stand apart in the source and are kept apart here.

Experiments:
[1] = Pharmacokinetic study in PXB-mice (human liver-chimeric); details: p.o., individual animals (3 per time point), LC/MS/MS, listed as TKB0245
[2] = system: SARS-CoV-2 TKYTS14631/ο BA.5; test: microbe, parasite or virus in culture; type: cell-based
[3] = system: SARS-CoV-2 TKYX00012/ο BA.1; test: microbe, parasite or virus in culture; type: cell-based
[4] = system: SARS-CoV-2 TKYS02037/ο BA.2; test: microbe, parasite or virus in culture; type: cell-based
human calpain = target: T1, human calpain (Homo sapiens, UniProt P07384); test: Human calpain activity assay; type: biochemical; details: for %inhibition against humanCalpain: triplicate
T1 sequence (P07384 2-714): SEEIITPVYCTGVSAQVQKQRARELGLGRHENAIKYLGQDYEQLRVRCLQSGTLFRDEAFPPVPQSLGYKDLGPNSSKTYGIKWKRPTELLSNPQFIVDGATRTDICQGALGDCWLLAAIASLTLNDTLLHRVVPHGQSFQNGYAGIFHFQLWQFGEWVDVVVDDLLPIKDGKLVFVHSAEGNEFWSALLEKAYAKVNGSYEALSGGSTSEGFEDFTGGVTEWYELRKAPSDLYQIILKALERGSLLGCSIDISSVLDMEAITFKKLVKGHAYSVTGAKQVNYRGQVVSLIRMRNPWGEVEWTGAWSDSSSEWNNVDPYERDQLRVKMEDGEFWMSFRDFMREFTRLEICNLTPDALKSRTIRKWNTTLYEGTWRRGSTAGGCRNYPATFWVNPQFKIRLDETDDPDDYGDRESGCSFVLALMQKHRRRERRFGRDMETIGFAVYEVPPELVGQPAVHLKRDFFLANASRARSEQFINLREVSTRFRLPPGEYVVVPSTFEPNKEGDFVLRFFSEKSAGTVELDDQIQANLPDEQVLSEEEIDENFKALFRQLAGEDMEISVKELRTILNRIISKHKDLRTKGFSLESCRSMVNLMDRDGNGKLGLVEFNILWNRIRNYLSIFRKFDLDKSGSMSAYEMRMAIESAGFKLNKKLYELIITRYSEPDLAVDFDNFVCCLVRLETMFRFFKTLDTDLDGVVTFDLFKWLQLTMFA
T1 sequence (P04632 1-268 partner): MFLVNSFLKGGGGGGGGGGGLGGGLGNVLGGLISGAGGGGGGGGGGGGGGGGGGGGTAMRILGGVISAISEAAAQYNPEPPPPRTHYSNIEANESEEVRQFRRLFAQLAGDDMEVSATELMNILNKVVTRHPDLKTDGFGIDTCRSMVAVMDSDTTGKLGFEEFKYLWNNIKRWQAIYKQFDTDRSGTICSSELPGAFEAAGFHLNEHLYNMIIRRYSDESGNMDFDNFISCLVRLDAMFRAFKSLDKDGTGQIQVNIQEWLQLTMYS

[5] = system: SARS-CoV-2^WK521 in HeLa-ACE2-TMPRSS2 cells; test: Antiviral assay, HeLa-ACE2-TMPRSS2 cells, WK521; type: cell-based
SARS-CoV-2^WK-521 = test: microbe, parasite or virus in culture; type: cell-based; set-up: EC95, individual assays / EC95, Average: unit: µM
HeLa-ACE2-TMPRSS2 cells = test: Intracellular concentrations of compounds (LC/MS), HeLa-ACE2-TMPRSS2 cells; details: 6 h; for Intracellular amount, individual: listed as TKB-0245
[6] = system: SARS-CoV-2^WK521 in A549-ACE2-TMPRSS2 cells; test: Antiviral assay, A549-ACE2-TMPRSS2 cells, WK521; type: cell-based

For `CC(C)(C)[C@H](NC(=O)C(F)(F)F)C(=O)N1C[C@H]2[C@@H]([C@H]1C(=O)N[C@@H](C[C@@H]1CCNC1=O)C(=O)c1nc3c(F)cccc3s1)C2(C)C` [TKB245], the Plasma concentration ([1]; 240 min) was 152.94 ng/mL and 98.79 ng/mL and 128.84 ng/mL, the Plasma concentration ([1]; 480 min) was 41.61 ng/mL and 34.39 ng/mL and 32.81 ng/mL and the Plasma concentration ([1]; 1440 min) was 25.98 ng/mL and 21.91 ng/mL and 27.88 ng/mL. For the same compound, the EC50 ([2]; read-out: EC50 against TKYTS14631/ο BA.5) was 19 ± 5 nM, the EC50 ([2]; read-out: EC50 ο BA5, Average) was 18.8 nM and the EC50 ([2]; read-out: EC50 ο BA5, individual assays) was 16.1 nM and 24.7 nM and 15.6 nM. The EC50 ([3]; read-out: EC50 ο BA1, Average) was 13.7 nM, the EC50 ([3]; read-out: EC50 ο BA1, individual assays) was 10 nM and 7 nM and 24.2 nM and the EC50 ([4]; read-out: EC50 against TKYVS2037/ο BA.2) was 45 ± 14 nM. The EC50 ([4]; read-out: EC50 ο BA2, Average) was 45.3 nM, the EC50 ([4]; read-out: EC50 ο BA2, individual assays) was 60 nM and 32 nM and 44 nM and the “Effect on human calpain (in words)” value (human calpain) was “neither of human cysteine enzymes, cathepsin L and calpain, were significantly affected”. The “%inhibition against humanCalpain” value (human calpain; 0.000128 µM) was 0%, the “%inhibition against humanCalpain” value (human calpain; 0.00064 µM) was 0% and the “%inhibition against humanCalpain” value (human calpain; 0.0032 µM) was 0%. For the same compound, the “%inhibition against humanCalpain” value (human calpain; 0.08 µM) was 0%, the “%inhibition against humanCalpain” value (human calpain; 0.4 µM) was 0% and the “%inhibition against humanCalpain” value (human calpain; 2 µM) was 9.6344% and 1.813%. The IC50 (human calpain; 60 minute incubation, mean ± 1 S.D., n=3, read-out: IC50, human calpains) was greater than 2000 nM, the EC50 ([5]; SARS-CoV-2^WK521, read-out: EC50, HeLa-ACE2-TMPRSS2) was 21 ± 8 nM and the EC50 ([5]; source data, listed as TKB0245, read-out: EC50, HeLa-AEC2-TMPRSS2, individual assays) was 14 nM and 30 nM and 20 nM. For the same compound, the EC50 ([5]; source data, read-out: EC50, HeLa-AEC2-TMPRSS2, Average) was 21.3 nM, the “EC95, Average” value (SARS-CoV-2^WK-521) was 0.53 and the “EC95, individual assays” value (SARS-CoV-2^WK-521) was 0.59 and 0.09 and 0.55 and 0.89. For the same compound, the “SARS-CoV2 RNA VeroE6 cell-based assay EC95” value (SARS-CoV-2^WK-521) was 530 nM and 530 ± 330 nM, the EC50 (SARS-CoV-2^WK-521; read-out: EC50, Average) was 31.2 nM and the EC50 (SARS-CoV-2^WK-521; read-out: EC50, VeroE6 + 2 µM CP100356) was 1 ± 1 nM. The EC50 (SARS-CoV-2^WK-521; read-out: EC50, VeroE6 with CP100356, Average) was 1.56 nM, the EC50 (SARS-CoV-2^WK-521; read-out: EC50, VeroE6 with CP100356, individual assays) was 1.4 nM and 2.37 nM and 0.9 nM and the EC50 (SARS-CoV-2^WK-521; read-out: EC50, individual assays) was 40 nM and 20 nM and 50 nM and 15 nM. For the same compound, the EC50 (SARS-CoV-2^WK-521; read-out: SARS-CoV2 RNA VeroE6 cell-based assay EC50) was 30 ± 20 nM, the “Intracellular amount, avg” value (HeLa-ACE2-TMPRSS2 cells; Hela ACE2 TMPRSS2, 10uM) was 0.603 pmol(total) and the “Intracellular amount, individual” value (HeLa-ACE2-TMPRSS2 cells; Hela ACE2 TMPRSS2, 10uM) was 0.6360 pmol(total) and 0.5701 pmol(total). For the same compound, the “Intracellular amount, avg” value (HeLa-ACE2-TMPRSS2 cells; Hela ACE2 TMPRSS2, 50uM) was 4.167 pmol(total), the “Intracellular amount, individual” value (HeLa-ACE2-TMPRSS2 cells; Hela ACE2 TMPRSS2, 50uM) was 4.585 pmol(total) and 3.749 pmol(total) and the “Intracellular amount, avg” value (HeLa-ACE2-TMPRSS2 cells; Hela ACE2 TMPRSS2, 100uM) was 8.85 pmol(total). For the same compound, the “Intracellular amount, individual” value (HeLa-ACE2-TMPRSS2 cells; Hela ACE2 TMPRSS2, 100uM) was 8.312 pmol(total) and 9.388 pmol(total), the EC50 ([6]; SARS-CoV-2^WK521, read-out: EC50, A549-ACE2-TMPRSS2) was 2.7 ± 0.2 nM and the EC50 ([6]; source data, listed as TKB0245, read-out: EC50, A549-AEC2-TMPRSS2, individual assays) was 3 nM and 2.47 nM and 2.78 nM. The EC50 ([6]; source data, read-out: EC50, A549-AEC2-TMPRSS2, Average) was 2.75 nM.
